The values that follow come from ChEMBL document CHEMBL1123014, “Synthesis and pharmacological activity of partially modified retro-inverso dermorphin tetrapeptides” (J Med Chem, 1985).

By IC50 is commonly meant the midpoint of a concentration-inhibition curve. Read a high IC50 as weaker potency in that assay. What is called half-life is how long it takes for the measured level to halve. A higher half-life goes with slow decline.

The species named for one data set is Cavia porcellus. Briefly: In vitro inhibition of contractions in the electrically stimulated guinea pig ileum. It counts as functional.
A short description of data set [1]: Half-life was determined. It counts as ADME. To be noted: human.
The subject of data set [2] is Mus musculus. Briefly: In vivo analgesic activity in the mouse tail-flick assay following i.c.v. administration. Type of data set: functional.
Data set [3] deals with Mus musculus. Briefly: In vivo analgesic activity in the mouse tail-flick assay following s.c. administration. The conditions noted are these: sc. It counts as functional.
Data set [4] can be described thus: Half-life of the compound. It counts as ADME.
Data set [5] has as its system Mus musculus. Briefly: In vivo analgesic potency in mice compared to morphine after s.c. administration. It counts as functional.
Data set [6] has as its system Mus musculus. Briefly: In vivo analgesic potency in mice compared to morphine after i.c.v. administration. Type of data set: functional.

In the data set listed under Cavia porcellus, `CCONC(=O)CNC(=O)[C@H](Cc1ccccc1)NC(=O)[C@@H](C)NC(=O)[C@@H](N)Cc1ccc(O)cc1` registered an IC50 of 191 nM. In data set [1], this compound showed a half-life of 20 min. In addition, the ED50 with Mus musculus [2] came out at 492 pmol/mouse.
On to `CC(C(=O)NCNC(=O)[C@H](Cc1ccccc1)NC(=O)[C@@H](C)NC(=O)[C@@H](N)Cc1ccc(O)cc1)c1ccccc1` (stereo partly specified), for which the ED50 was 39.5 µmol/kg in the data set on Mus musculus [3] and 19.2 pmol/mouse in the data set on Mus musculus [2]. Also, the IC50 in the data set filed under Cavia porcellus was 0.5 nM. The half-life in data set [1] and in data set [4] was 65 min throughout.
As to `C[C@@H](NC(=O)[C@@H](N)Cc1ccc(O)cc1)C(=O)N[C@@H](Cc1ccccc1)C(=O)NCC(=O)NC12CC3CC(CC(C3)C1)C2`, the ED50 with Mus musculus [3] came to 18.8 µmol/kg; with Mus musculus [2] it was 5.12 pmol/mouse. This compound also yielded an IC50 in the data set listed under Cavia porcellus of 2.05 nM. For the same compound, the half-life in data set [1] turned out to be 35 min.
As to `C[C@@H](NC(=O)[C@@H](N)Cc1ccc(O)cc1)C(=O)N[C@@H](Cc1ccccc1)C(=O)NCC(=O)N[C@@H](Cc1ccc(O)cc1)C(=O)N1CCC[C@H]1C(=O)N[C@@H](CO)C(N)=O` [DERMORPHIN], the ED50 is 2.75 µmol/kg with Mus musculus [3] and 11.4 pmol/mouse in the data set on Mus musculus [2]. For the same compound, the half-life is 40 min in data set [1] and 35 min in data set [4].
For `CC(NC(=O)CC(=O)N[C@H](Cc1ccccc1)NC(=O)[C@@H](C)NC(=O)[C@@H](N)Cc1ccc(O)cc1)c1ccccc1` (stereo partly specified), the ED50 with Mus musculus [3] was determined as 44.2 µmol/kg; with Mus musculus [2], 88.6 pmol/mouse. This compound showed an IC50 in the data set listed under Cavia porcellus of 2.05 nM. The half-life in data set [1] is 65 min; in data set [4] it was 60 min. Moreover, in the data set on Mus musculus [5], the Relative potency came to 0.24.
On to `C[C@@H](NC(=O)[C@@H](N)Cc1ccc(O)cc1)C(=O)N[C@@H](Cc1ccccc1)C(=O)NCC(N)=O`, for which the ED50 in the data set on Mus musculus [3] was determined as 68.1 µmol/kg; in the data set with Mus musculus [2], 68 pmol/mouse. In addition, in the data set listed under Cavia porcellus, the IC50 stood at 45.2 nM. Further, the half-life in data set [1] was 30 min.
The compound `CCONC(=O)CC(=O)N[C@H](Cc1ccccc1)NC(=O)[C@@H](C)NC(=O)[C@@H](N)Cc1ccc(O)cc1` returned an IC50 in the data set filed under Cavia porcellus of 320 nM. In addition, the half-life in data set [1] was found to be 30 min. In addition, the ED50 in the data set with Mus musculus [2] amounted to 1630 pmol/mouse.
Regarding `CC(C(=O)NCC(=O)N[C@H](Cc1ccccc1)N(C)C(=O)[C@@H](C)NC(=O)[C@@H](N)Cc1ccc(O)cc1)c1ccccc1` (stereo partly specified), in the data set listed under Cavia porcellus, the 50% inhibitory concentration (IC50) amounted to 31.2 nM. This compound also registered a half-life in data set [1] of 60 min. The ED50 in the data set on Mus musculus [2] came out at 269 pmol/mouse.
As to `C[C@@H](NC(=O)[C@@H](N)Cc1ccc(O)cc1)C(=O)N[C@@H](Cc1ccccc1)C(=O)NCNC(=O)C12CC3CC(CC(C3)C1)C2`, the ED50 came to 21.7 µmol/kg with Mus musculus [3] and 10.9 pmol/mouse with Mus musculus [2]. In the data set listed under Cavia porcellus, this compound registered an IC50 of 0.31 nM. Further, the results for the half-life in data set [1] and in data set [4] were 80 min and 65 min, respectively.
In turn, `C[C@@H](NC(=O)[C@@H](N)Cc1ccc(O)cc1)C(=O)N[C@@H](Cc1ccccc1)NC(=O)CC(=O)NO` returned a half-inhibitory concentration (IC50) in the data set listed under Cavia porcellus of 330 nM. The compound also gave a half-life in data set [1] of 30 min. The compound further registered an ED50 in the data set with Mus musculus [2] of 1600 pmol/mouse.
`C[C@@H](NC(=O)[C@@H](N)Cc1ccc(O)cc1)C(=O)N(C)[C@@H](Cc1ccccc1)NC(=O)CNC=O` returned an IC50 in the data set filed under Cavia porcellus of 380 nM. The same compound returned a half-life in data set [1] of 35 min. In the data set with Mus musculus [2], this compound came in with an ED50 of 642 pmol/mouse.
In the case of `C[C@@H](NC(=O)[C@@H](N)Cc1ccc(O)cc1)C(=O)N[C@@H](Cc1ccccc1)NC(=O)CC(=O)NCc1ccccc1`, the midpoint of inhibition in the data set filed under Cavia porcellus, the IC50, lay at 18.2 nM. Moreover, in data set [1], the half-life came to 35 min. This compound showed an ED50 in the data set on Mus musculus [2] of 556 pmol/mouse.
The matching figures for `C[C@@H](NC(=O)[C@@H](N)Cc1ccc(O)cc1)C(=O)N[C@@H](Cc1ccccc1)C(=O)NCC(=O)NO`: 108 nM, 25 min and 140 pmol/mouse.
Turning to `CN1CC[C@]23c4c5ccc(O)c4O[C@H]2[C@@H](O)C=C[C@H]3[C@H]1C5` [MORPHINE], the ED50 in the data set on Mus musculus [3] is 10.9 µmol/kg; in the data set with Mus musculus [2], 3030 pmol/mouse.
On to `CC(NC(=O)CNC(=O)[C@H](Cc1ccccc1)NC(=O)[C@@H](C)NC(=O)[C@@H](N)Cc1ccc(O)cc1)c1ccccc1` (stereo partly specified), for which the ED50 in the data set with Mus musculus [3] came out at 13.6 µmol/kg; with Mus musculus [2], 7.61 pmol/mouse. The compound also displayed an IC50 in the data set filed under Cavia porcellus of 0.59 nM. This compound also yielded a half-life in data set [1] of 40 min.
For `C[C@@H](NC(=O)[C@@H](N)Cc1ccc(O)cc1)C(=O)N[C@@H](Cc1ccccc1)C(=O)NCNC(=O)Cc1ccccc1`, the results for the ED50 in the data set on Mus musculus [3] and in the data set with Mus musculus [2] were 27.8 µmol/kg and 74.1 pmol/mouse, respectively. The midpoint of inhibition in the data set filed under Cavia porcellus, the IC50, lay at 2.12 nM. In addition, the results for the half-life in data set [1] and in data set [4] were 60 min and 45 min, respectively.
Consider `C[C@@H](NC(=O)[C@@H](N)Cc1ccc(O)cc1)C(=O)N[C@@H](Cc1ccccc1)C(=O)NCC(=O)NCc1ccccc1`, for which 2.97 nM corresponded to half-maximal inhibition in the data set filed under Cavia porcellus (IC50). This compound gave a half-life in data set [1] of 30 min. Besides, the ED50 in the data set on Mus musculus [2] is 33.1 pmol/mouse.
As to `C[C@@H](NC(=O)[C@@H](N)Cc1ccc(O)cc1)C(=O)N[C@@H](Cc1ccccc1)NC(=O)CC(N)=O`, the Relative potency in the data set on Mus musculus [6] came out at 3.11. Also, half-maximal inhibition in the data set filed under Cavia porcellus (IC50) was put at 242 nM. Moreover, the half-life in data set [1] worked out at 35 min. Besides, the ED50 with Mus musculus [2] is 974 pmol/mouse.
`C[C@@H](NC(=O)[C@@H](N)Cc1ccc(O)cc1)C(=O)N[C@@H](Cc1ccccc1)C(=O)NCNC=O` displayed an IC50 in the data set filed under Cavia porcellus of 39.2 nM. Besides, the half-life in data set [1] was found to be 40 min. Besides, the ED50 in the data set with Mus musculus [2] was 157 pmol/mouse.
The compound `C[C@@H](NC(=O)[C@@H](N)Cc1ccc(O)cc1)C(=O)N(C)[C@@H](Cc1ccccc1)NC(=O)CNC(=O)Cc1ccccc1` came in with a half-maximal inhibitory concentration (IC50) in the data set filed under Cavia porcellus of 25.2 nM. In data set [1], this compound showed a half-life of 45 min. The compound further returned an ED50 with Mus musculus [2] of 292 pmol/mouse.
For the compound `C[C@@H](NC(=O)[C@@H](N)Cc1ccc(O)cc1)C(=O)N[C@@H](Cc1ccccc1)NC(=O)CC(=O)NC12CC3CC(CC(C3)C1)C2`, the ED50 was 55.5 µmol/kg in the data set on Mus musculus [3] and 88.4 pmol/mouse in the data set with Mus musculus [2]. In addition, the IC50 in the data set listed under Cavia porcellus was found to be 4.45 nM. In addition, the half-life was found to be 65 min in data set [1] and 50 min in data set [4].
`C[C@@H](NC(=O)[C@@H](N)Cc1ccc(O)cc1)C(=O)N(C)[C@@H](Cc1ccccc1)NC(=O)CNC(=O)C12CC3CC(CC(C3)C1)C2` returned an IC50 in the data set filed under Cavia porcellus of 19.2 nM. The same compound showed a half-life in data set [1] of 55 min. The compound further returned an ED50 in the data set on Mus musculus [2] of 246 pmol/mouse.
